Experimental data: US20260021059A1, “THERAPEUTIC COMBINATIONS AND METHODS” (RUTGERS, THE STATE UNIVERSITY OF NEW JERSEY, priority 2022, published 2026)
Entries after “also recorded” stand apart in the source; their conditions may differ.

Assays:
[1] = tested on: BED patients; details: daily LDX administration; cited from earlier work
[2] = tested on: rats; assay: Palatable food intake (binge-like eating) of a fat/sucrose mixture during 30 min exposure periods; format: in vivo; details: for palatable food intake (binge-like eating): N=5; for palatable food intake: N=12
Protocol: Rats were trained to consume a palatable fat mixture (90% vegetable shortening, 10% sucrose) during brief exposure periods (30 mins) that occurred twice per week. The amount of palatable food consumed during these 30 min exposure periods was measured.

[3] = tested on: rats; assay: Locomotor activity / behavioral sensitization on repeated (7 d) dosing; format: in vivo; details: d-amphetamine alone 0.375 mg/kg i.p., 7 consecutive days; recorded 1 hour following treatment
Protocol: Rats were measured for baseline locomotor activity (Day 0). Rats then received injections of saline, d-amphetamine, or the combination of d-amphetamine and suvorexant, for 7 consecutive days. Locomotor activity was recorded for 1 hour following treatment.

[4] = tested on: rats; assay: Sleep EEG/EMG telemetry recordings over the 12 hours inactive period; details: d-amphetamine alone 0.75 mg/kg i.p., 1 hr prior to onset of inactive period

C[C@@H](Cc1ccccc1)NC(=O)[C@@H](N)CCCCN [LDX, lisdexamfetamine]
binge frequency [1]: highly effective at reducing binge frequency
patients reporting complete binge cessation [1]: 35-50%

Cc1nc2ccc(NC(=O)Nc3ccnc4cccnc34)cc2o1 [SB334867]
palatable food intake (binge-like eating) ([2]; SB334867 alone 10 mg/kg i.p.): observed only at the highest dose; also recorded: A significant reduction was observed only at a high dose
palatable food intake (binge-like eating) ([2]; SB334867 alone 30 mg/kg i.p.): significant change; also recorded: significant reduction

C[C@H](N)Cc1ccccc1 [d-amphetamine]
palatable food intake ([2]; d-amphetamine alone 0.1875 mg/kg i.p. prior to test session): no significant change; also recorded: no effect
palatable food intake ([2]; d-amphetamine alone 0.375 mg/kg i.p. prior to test session): no significant change; also recorded: no effect
locomotor activity (behavioral reactivity) [3]: significantly higher; also recorded: increased locomotor activity
total time in REM sleep compared to baseline [4]: decreased
total time in active wake compared to baseline [4]: increased

Cc1ccc(-n2nccn2)c(C(=O)N2CCN(c3nc4cc(Cl)ccc4o3)CC[C@H]2C)c1 [suvorexant]
palatable food intake ([2]; suvorexant alone 10 mg/kg i.p. prior to test session): no significant change; also recorded: no effect
